“And” between values parts separate entries of the source, which are not always exact repeats. Identical values can stand only once.
How the values were obtained:
rats with a lung injury = test: BALF inflammatory factors and total protein (Example 2); format: in vivo, Sprague-Dawley rats
Procedure: D0: The animals in the normal control group were intraperitoneally injected with sodium chloride injection (1 ml/kg), while the animals in other groups were intraperitoneally injected with lipopolysaccharides (1 mg/kg, 1 ml/kg).
D1: After 16 h (+30 min) of intraperitoneal injection, the animals were anesthetized by inhaling isoflurane. The animals in the normal control group were nebulized with sodium chloride injection (1 mL/kg) in the trachea, while the animals in other groups were nebulized with lipopolysaccharides (5 mg/kg, 1 ml/kg) in the trachea.
Administration frequency and duration: On D1, the animals were administered for the first time within 3 h after the intratracheal nebulization with the modeling reagent (LPS); and on D2, the animals were administered for the second time. The interval between the two administrations was about 24 h (+20 min).
Sample collection: After the animals were euthanatized, the skin and tissues of the neck and chest were incised to expose the trachea, bronchi, and lungs. The bronchi in the right lung were separated and ligated. A suture was threaded under the trachea, a ½ incision was made between cartilage rings of the trachea at an appropriate position under the thyroid cartilage, a trachea cannula was slowly inserted along the incision into the airway to a left bronchus, and the inserted cannula was fastened with the trachea by using the threaded suture at an appropriate position in a centripetal direction of the incision. 3 ml of PBS buffer was slowly injected with a syringe for bronchoalveolar lavage. The lavage was repeated 3 times, with each remaining for about 10 seconds. The lavage solution was collected into a centrifuge tube of appropriate capacity.
BALF treatment: The collected lavage solution was centrifuged at 4° C. and approximately 2000 rpm for 20 min. The supernatant was stored below −60° C. for later use. The precipitate was re-suspended with I mL of PBS buffer for count and classification of white blood cells. The supernatant after BALF centrifugation was managed as a sample by using a Watson LIMS7.5 system.
Test of total protein content in the BALF: At the end of the experiment, the total protein content in the BALF was tested by a total protein test kit (BCA method).
Test of inflammatory factors in the BALF: At the end of the experiment, the inflammatory factors (IL-1β, IL-6, IL-10, and TNF-α) in the BALF were tested by an inflammatory factor test kit.

[1] = Body weight of rats after LPS modeling (Example 1); format: in vivo
Procedure: (§1) Normal adult male SD rats were randomly grouped, 5 rats in each group. The animals were intraperitoneally injected and nebulized in the trachea with lipopolysaccharides (LPS) as a modeling reagent, as shown in Table 1:
(§2) The animals in groups G1 and G2 were intraperitoneally injected with lipopolysaccharides (0.8 mg/kg. body weight) according to their body weight, anesthetized by inhaling isoflurane after 16 h of the intraperitoneal injection, and nebulized with lipopolysaccharides (5 mg/kg. body weight) in the trachea.
(§3) The animals were administered for the first time within 1 h after the intratracheal nebulization with the modeling reagent (LPS), and the second time after 24 h.
Before grouping, the animals were weighed on the day of modeling and the day of administration of samples; and the animals were also weighed when they were found dead or on the brink of euthanasia.

[2] = system: LPS-induced acute respiratory distress syndrome; test: Histopathological examination of lung, HE staining, LPS-induced ARDS rat model (Example 1); format: in vivo, SD rats; design: key to Pulmonary pathological score, Inflammation, Sited 1 / Pulmonary pathological score, Inflammation, Sited 2 / Pulmonary pathological score, Inflammation, Sited 3 / Pulmonary pathological score, Alveolar wall thickness, Sited 1 / Pulmonary pathological score, Alveolar wall thickness, Sited 2 / Pulmonary pathological score, Alveolar wall thickness, Sited 3: 0: NA; 1: Slight; 2: Moderate; 3: Severe; Pulmonary pathological score, Mean of total / Pulmonary pathological score, Inflammation, Mean / Pulmonary pathological score, Alveolar wall thickness, Mean / Pulmonary pathological score, Total: scale not given here
Procedure: as §1, §2, §3
After the bronchoalveolar lavage fluid was collected from all the animals, the chest cavity was opened to take the right lung. The lung was infused with formalin by using an injection needle, fixed in a 10% neutral buffer formalin solution, followed by paraffin embedding, slicing, section preparation, and HE staining for pathological morphological observation of lung tissues. Professional pathologists carried out pathological testing on the lung tissues.

[3] = system: LPS-induced acute respiratory distress syndrome; test: BALF neutrophil count and percentage, LPS-induced ARDS rat model (Example 1); format: in vivo, SD rats
Procedure: as §1, §2
Intraperitoneal injection with lipopolysaccharides (LPS): According to the body weight of the animals, each animal was administered with lipopolysaccharides by intraperitoneal injection with a disposable micro syringe.
Intratracheal nebulization with lipopolysaccharides (LPS): Each animal was anesthetized by inhaling isoflurane and then fixed on a rat fixator placed at a 45° angle, the root of the animal's tongue was pressed by a small animal anesthesia laryngoscope to expose the glottis, a pulmonary micro liquid nebulizer needle (blunt) that extracted a quantitative solution of LPS was gently inserted into the trachea, then the piston was quickly pushed to atomize the LPS solution into the lung, the needle was quickly pulled out, and the animal was taken down from the fixator and rotated left and right with its head facing upwards to distribute LPS as evenly as possible in each lung lobe.
as §3
The day after the end of the second administration (48 h after the intratracheal nebulization with the modeling reagent).
Collection of samples: On the day after the second administration, all groups of animals were euthanized with CO2, then their abdominal cavities were opened, and their abdominal arteries were cut for bleeding. […] Precipitated cells were re-suspended with 1 ML PBS, and total cells in the BALF were counted by a blood cell counter and trypan blue staining. […]

[4] = D3, 0.75 mg/kg i.v. twice, 6 rats, x ± SD
[5] = G2 compared to model control group G1
[6] = mean of 3 sites per animal G2-1 to G2-5, 1 mg/kg
[7] = single animals G2-1 to G2-5, 1 mg/kg, score 0-3
[8] = G2 mean, 5 rats, 1 mg/kg caudal vein injection twice, 48 h after LPS nebulization

In the case of Annexin A5, the “IL-1β in BALF” value (rats with a lung injury; [4]) is reported as 107.45 ± 51.12 pg/mL, the “IL-6 in BALF” value (rats with a lung injury; [4]) is reported as 14.42 ± 23.92 pg/mL and the “IL-10 in BALF” value (rats with a lung injury; [4]) is reported as 0.92 ± 2.23 pg/mL. For the same substance, the “TNF-α in BALF” value (rats with a lung injury; [4]) was 4.54 ± 4.63 pg/mL, the “Total proteins in BALF” value (rats with a lung injury; [4]) was 461.31 ± 187.36 µg/mL and the “Change of BALF white blood cell counts, total protein and inflammatory factors” value (rats with a lung injury; test sample group vs model control group) was “significantly decreased”. For the same substance, the “Body weight, Day 0” value ([1]; G2 mean, 5 rats, 1 mg/kg caudal vein injection, Day 0) was 254.49 g, the “Body weight, Day 1” value ([1]; G2 mean, 5 rats, 1 mg/kg caudal vein injection, Day 1) was 240.80 g and the “Body weight, Day 2” value ([1]; G2 mean, 5 rats, 1 mg/kg caudal vein injection, Day 2) was 224.36 g. The “Body weight, Day 3” value ([1]; G2 mean, 5 rats, 1 mg/kg caudal vein injection, Day 3) was 241.86 g, the “Body weight compared between groups” value ([1]; after LPS modeling, G2 vs G1) was “no significant difference between the groups” and the “Effect on LPS-induced acute respiratory distress syndrome (pathological analysis)” value [2, 5] was “significant improvement”. The “Lung injury in stained pathological sections (FIG. 4)” value [2, 5] was “significantly improved”, the “Pulmonary pathological score, Mean of total” value ([2]; group G2, 5 rats, 1 mg/kg) was 2.33 and the “Pulmonary pathological score, Alveolar wall thickness, Mean” value [2, 6] was 0.67 (3×) and 1.00 and 1.33. For the same substance, the “Pulmonary pathological score, Inflammation, Mean” value [2, 6] was 1.67 and 2.00 and 1.33 (2×) and 1.00, the “Pulmonary pathological score, Total” value ([2]; per animal G2-1 to G2-5, 1 mg/kg) was 2.33 (2×) and 3.00 and 2.00 (2×) and the “Pulmonary pathological score, Alveolar wall thickness, Sited 1” value [2, 7] was 0 (2×) and 1 (2×) and 2. For the same substance, the “Pulmonary pathological score, Alveolar wall thickness, Sited 2” value [2, 7] was 1 (4×) and 2, the “Pulmonary pathological score, Alveolar wall thickness, Sited 3” value [2, 7] was 1 (3×) and 0 (2×) and the “Pulmonary pathological score, Inflammation, Sited 1” value [2, 7] was 2 (2×) and 1 (3×). The “Pulmonary pathological score, Inflammation, Sited 2” value [2, 7] was 2 and 3 and 1 (3×), the “Pulmonary pathological score, Inflammation, Sited 3” value [2, 7] was 1 (3×) and 2 (2×) and the “Effect on count of neutrophils (Neu cells) in the BALF” value [3, 5] was “significantly inhibited”. The “Neu cell counts in the BALF” value [3, 8] was 7.03 *10^6 and the “Percentages of Neu cells in the BALF” value [3, 8] was 36.80%.

From patent US20240189388A1, “MEDICATION FOR TREATING LUNG INJURY” (SHANGHAI SEME CELL TECHNOLOGY CO., LTD., priority 2021, published 2024)
